Tested on: three-dimensional co-culture of astrocytes, neurons and microglia
Assay: Intercellular interactions during neuroinflammation: NF-κB p65 immunostaining of the three-dimensional co-culture after LPS treatment
Format: cell-based, human
Details: 100 ng/ml final concentration; fixed 0, 0.5, 1, 3, 6 and 24 hours after treatment; co-culture cultured for 3 weeks
Experimental: • The three-dimensional co-culture that had been cultured for 3 weeks was treated with Lipopolysaccharide (LPS) from E. coli 0127 (FUJIFILM Wako Pure Chemical Corporation, 124-05151) such that the final concentration was 100 ng/ml, and fixed by treating, for 30 minutes, with a 4% paraformaldehyde-phosphate buffer solution (FUJIFILM Wako Pure Chemical Corporation, 161-20141) at 0, 0.5, 1, 3, 6, and 24 hours after the treatment. After washing with PBS(-), the co-culture was treated with Triton (registered trademark) X-100 solution (BioVision, 2104-100) diluted to 0.4% with PBS(-) for 15 minutes to perform permeation treatment. After the permeation treatment, the co-culture was treated with a BSA solution (Sigma-Aldrich, A416) adjusted at a concentration of 4% with PBS(-) for 30 minutes to perform blocking. […] After washing with PBS(-), imaging was performed with a confocal quantitative image cytometer CQ1 (Yokogawa Electric Corporation, Cell Voyager (registered trademark) CQ1) to acquire images.

Substance: Lipopolysaccharide [LPS]
- nuclear localization of NF-κB after the LPS treatment: change in nuclear localization of NF-κB

— patent US20260117174A1, “PRODUCTION METHOD OF THREE-DIMENSIONAL CELL CULTURE, CULTURE METHOD OF THREE-DIMENSIONAL CELL CULTURE, THREE-DIMENSIONAL CELL CULTURE, AND EVALUATION METHOD OF TEST SUBSTANCE” (FUJIFILM Corporation, priority 2023, published 2026)
